Experimental data taken from patent US20230107642A1 (Erasca, Inc., priority 2020, published 2023).

The molecules below were run against T1, K-Ras G12C (Homo sapiens, UniProt P01116, G12C) (assay: CAF assay (% CAF; method in Example 7, not in this part)). Conditions: 10 μM, 1 h; Table 4.
T1 construct: This protein contained 188 amino acids in total, including an N-terminal 6-Histidine tag; made in house; host or cells: E. coli BL21
Type: binding

Row | SMILES | % CAF @ 10 μM, 1 h [%]
1 | C=CC(=O)N1CCN(c2nc(=O)n3c4c(c(-c5c(F)cc(F)cc5F)c(Cl)cc24)SC[C@@H]3CC2CCN(C)CC2)[C@@H](C)C1 [Example 343, (S)-7-((S)-4-acryloyl-2-methylpiperazin-1-yl)-9-chloro-3-((1-methylpiperidin-4-yl)methyl)-10-(2,4,6-trifluorophenyl)-2H-[1,4]thiazino[2,3,4-ij]quinazolin-5(3H)-one] | 96.7
2 | C=CC(=O)N1CCN(c2nc(=O)n3c4c(c(-c5c(F)cc(F)cc5F)c(Cl)cc24)SC[C@H]3CC2CCN(C)CC2)[C@@H](C)C1 [Example 344, (R)-7-((S)-4-acryloyl-2-methylpiperazin-1-yl)-9-chloro-3-((1-methylpiperidin-4-yl)methyl)-10-(2,4,6-trifluorophenyl)-2H-[1,4]thiazino[2,3,4-ij]quinazolin-5(3H)-one] | 94.8
3 | C=CC(=O)N1CCN(c2nc(=O)n3c4c(c(-c5ccc(F)cc5F)c(Cl)cc24)SC[C@H]3CC2CCN(C)CC2)[C@@H](C)C1 [Example 345, (3R)-7-((S)-4-acryloyl-2-methylpiperazin-1-yl)-9-chloro-10-(2,4-difluorophenyl)-3-((1-methylpiperidin-4-yl)methyl)-2H-[1,4]thiazino[2,3,4-ij]quinazolin-5(3H)-one] | 82.4
4 | C=CC(=O)N1CCN(c2nc(=O)n3c4c(c(-c5ccc(F)cc5F)c(Cl)cc24)SC[C@H]3CN2CCN(CC)CC2)[C@@H](C)C1 [Example 346, (3R)-7-((S)-4-acryloyl-2-methylpiperazin-1-yl)-9-chloro-10-(2,4-difluorophenyl)-3-((4-ethylpiperazin-1-yl)methyl)-2H-[1,4]thiazino[2,3,4-ij]quinazolin-5(3H)-one] | 79.3
5 | C=CC(=O)N1CCN(c2nc(=O)n3c4c(c(-c5ccc(F)cc5F)c(Cl)cc24)SC[C@H]3CN2CCN(CC(F)F)CC2)[C@@H](C)C1 [Example 347, (3R)-7-((S)-4-acryloyl-2-methylpiperazin-1-yl)-9-chloro-3-((4-(2,2-difluoroethyl)piperazin-1-yl)methyl)-10-(2,4-difluorophenyl)-2H-[1,4]thiazino[2,3,4-ij]quinazolin-5(3H)-one] | 82.5
6 | C=CC(=O)N1CCN(c2nc(=O)n3c4c(c(-c5ccc(F)cc5F)c(Cl)cc24)SC[C@H]3CC2CCN(CC(F)F)CC2)[C@@H](C)C1 [Example 348, (3R)-7-((S)-4-acryloyl-2-methylpiperazin-1-yl)-9-chloro-3-((1-(2,2-difluoroethyl)piperidin-4-yl)methyl)-10-(2,4-difluorophenyl)-2H-[1,4]thiazino[2,3,4-ij]quinazolin-5(3H)-one] | 92
7 | C=CC(=O)N1CCN(c2nc(=O)n3c4c(c(-c5ccc(F)cc5)c(Cl)cc24)SC[C@H]3CC2CCN(CC(F)F)CC2)[C@@H](C)C1 [Example 349, (R)-7-((S)-4-acryloyl-2-methylpiperazin-1-yl)-9-chloro-3-((1-(2,2-difluoroethyl)piperidin-4-yl)methyl)-10-(4-fluorophenyl)-2H-[1,4]thiazino[2,3,4-ij]quinazolin-5(3H)-one] | 94
8 | C=CC(=O)N1CCN(c2nc(=O)n3c4c(c(-c5ccc(F)cc5F)c(C(F)(F)F)cc24)SC[C@@H]3CN2CCN(CC)CC2)[C@@H](C)C1 [Example 350, (3S)-7-((S)-4-acryloyl-2-methylpiperazin-1-yl)-10-(2,4-difluorophenyl)-3-((4-ethylpiperazin-1-yl)methyl)-9-(trifluoromethyl)-2H-[1,4]thiazino[2,3,4-ij]quinazolin-5(3H)-one] | 95
9 | C=CC(=O)N1CCN(c2nc(=O)n3c4c(c(-c5c(F)cc(F)cc5F)c(Cl)cc24)SC[C@@H]3CN2CCN(CC)CC2)[C@@H](C)C1 [Example 351, (S)-7-((S)-4-acryloyl-2-methylpiperazin-1-yl)-9-chloro-3-((4-ethylpiperazin-1-yl)methyl)-10-(2,4,6-trifluorophenyl)-2H-[1,4]thiazino[2,3,4-ij]quinazolin-5(3H)-one] | 74
